Data on four molecules can be found in patent US11236122B2, “Triterpene amine derivatives” (DFH THERAPEUTICS, priority 2018, dated 2022).

Structures can show the parent of a compound that is named as a salt. Where only a bound is given, the exact number is not on record here.

One series concerns HIV-1 clade B NL4-3. The experiment in a line: Viral infectivity assay in TZM-bl cells (luciferase), NL4-3. Format: cell-based. The note with it: DMSO = 100. From the text:
(§1) Plasmids, tissue culture and transfections. HIV-1 clade B molecular clone NL4-3 and cade C clones K3016, ZM247 were obtained from Dr. Christina Ochsenbauer, University of Alabama, USA. Both K3016 and ZM247 were constructed using viral strains from South Africa. The HIV-1 clade C molecular clone pindieC1 was obtained from Dr. Uday Ranga, JNCASR, India. This clone was constructed using an HIV strain from India. HEK-293T and TZM-bl cells were propagated in Dulbecco's modified Eagle's medium (DM4EM) containing 10% fetal bovine serum (FBS). HUT-R5 cells were propagated in RPM 1640 medium supplemented with 10% FBS. For transfections, HEK-293T cells were grown in six well plates to about 80% confluency. Cells were transfected using Lipofectamine 2000 (invitrogen, USA) following manufacturer's recommendations. For viral replication assays, HUT-R5 T-cells were transfected using DEAE dextran as described in Waheed, A. A., Ono, A., and Freed, E. O.; Methods for the study of HIV-1 assembly; Methods Mol. Biol. Clifton N.J. 485, 163-184 (2009).
(§2) Preparation of viral stocks. Virus stocks were prepared by transfecting HEK-293T cells with HIV-1 DNAs (3 μg). 24 h post-transfection, the culture medium was replaced with fresh DMEM and incubated for another 2 h. Compounds tested were maintained in the culture throughout transfection. The culture supernatant was centrifuged at 845×g for 3 min to remove cellular debris. The clarified supernatants were filtered (pore size 0.45 µm filter disc) to remove residual cellular contaminants. For determination of viral infectivity, the un-concentrated virus was used to infect TZM-bl cells. For the CA-SP1 accumulation assay, the virus was pelleted by ultra-centrifugation at 210,100×g for 1 h at 4° C. using SW41Ti rotor (Beckman Coulter, USA).
(§3) Viral infectivity assays. The virus stocks were normalized for p24 antigen using an HIV-1 p24 Antigen Capture kit (ABL, USA). Equal amounts of virus were used to infect TZM-bl cells (5×10^4/well) in the presence of 20 μg DEAE-dextran per mL in 24 well plate. Single-round infectivity assays were performed as previously described in Checkley, M. A. et al; Reevaluation of the Requirement for TIP47 in Human Immunodeficiency Virus Type 1 Envelope Glycoprotein Incorporation; J. Virol. 87, 3561-3570 (2013). The luciferase activity in the cell lysates was measured using the Steady-Glo luciferase assay kit (Promega, USA) following manufacturer's recommendations.

The subject of series [1] is HIV-1 clade C K3016. The experiment in a line: CA-SP1 accumulation assay (immunoblot), clade C K3016. Format: cell-based. On the procedure:
(§4) Compound evaluation was performed against a panel of HIV-1 Clade C isolates K3016, pindieC1, and ZM247. The three isolates all contain the SP1-A7V. Clade B NL4-3 was included as the […] control.
as §1, §2
(§5) CA-SP1 accumulation assay. To measure accumulation of CA-SP1, immunoblot analysis of virus-associated proteins was performed. The virus pellet was resuspended in radioimmunoprecipitation assay (RIPA) buffer (50 mM Tris-HCl pH 8.0, 150 mM sodium chloride, 1.0% NP-40, 0.5% sodium deoxycholate, 0.1% SDS) containing 1×protease inhibitor cocktail (Roche, Germany). The viral lysates were subjected to SDS-polyacrylamide gel electrophoresis (15% gel). Proteins were transferred to polyvinylidene difluoride membranes and reacted with HIV-IgG obtained from the NIH AIDS Reagent Program (catalog no. 3957) followed by incubation with HRP-conjugated anti-human secondary antibodies (GE Healthcare, UK). The proteins were visualized by enhanced chemiluminescence (Pierce, USA) and the bands were quantified using ImageJ software (http://imagej.nih.gov/ij/).
(In western blotting, separated proteins are transferred to a membrane and probed.)

Series [2] can be described thus: Cytotoxicity assay CellTitre-Blue, HEK-293T. Format: cell-based. The note with it: human, HEK-293T cells, read-out: Cytotoxicity CC50 HEK293T. On the procedure: Cytotoxicity assays. Cytotoxicity assays were performed using the CellTitre-Blue Cell Viability Assay kit (Promega, USA) as per manufacturer's recommendations. HEK-293T and HUT-R5 cell lines were maintained in the presence of serial dilutions of the compounds for 4 days and treated with CellTitre-Blue reagent for 4 h at 37° C. The fluorescent signals were recorded at 530/25excision and 590/35emission using BioTek microplate reader. The 50% cytotoxicity concentrations (CC50s) were determined as the compound concentrations that reduced the fluorescent signals to 50% relative to DMSO only controls.

A further series has as its system pNL4-3 SP1-V7A. The experiment in a line: CA-SP1 accumulation assay, SP1-V7A derivative. Format: cell-based, HIV-1. The note with it: HeLa or 293T cells; for % CA-SP1 Accumulation 10 nM SP1 V7A: 10 nM compound. In short, it runs like this: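 HeLa or 293T cells transfected with proviral clone, maturation inhibitors present through transfection and labeling; at 24 h, [^35S]Met/Cys labeling 2-3 h. Virions pelleted by ultracentrifugation, lysed, CA and CA-SP1 resolved by SDS-PAGE and quantified by phosphorimaging.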

In a further series the test system is HIV-1 clade C pindieC1. The experiment in a line: CA-SP1 accumulation assay (immunoblot), clade C pindieC1. Format: cell-based. The note with it: head prints K3016. On the procedure:
as §4, §1, §2, §5

Series [3] concerns HIV-1 clade C K3016. Kind of series: Viral infectivity assay in TZM-bl cells (luciferase), K3016. Format: cell-based. The note with it: DMSO = 100.
Source text: as §1, §2, §3

For the molecule `C=C(C)[C@@H]1CC[C@]2(CCNCCN3CCN(Cc4ccccc4)CC3)CC[C@]3(C)[C@H](CC[C@@H]4[C@@]5(C)CC[C@H](OC(=O)CC(C)(C)C(=O)O)C(C)(C)[C@@H]5CC[C@]43C)[C@@H]12` [Compound 51hh, (3β)-17-[2-[[2-[4-(Phenylmethyl)piperazin-1-yl]ethyl]amino]ethyl]-28-norlup-20(29)-en-3-ol, 3-(1-Hydrogen 2,2-Dimethylbutanedioate)], in the series on HIV-1 clade B NL4-3, the “% Relative Infectivity NL4-3 10 nM” value was determined as 41.4% and the “% Relative Infectivity NL4-3 100 nM” value is 3.3%. Moreover, in the series on HIV-1 clade C K3016 [1], the “% CA-SP1 Accumulation K3016 10 nM” value amounted to 35.8% and the “% CA-SP1 Accumulation K3016 100 nM” value worked out at 62.9%. The CC50 at 4 days in series [2] is over 100 nM. In addition, the “% CA-SP1 Accumulation 10 nM SP1 V7A” value with pNL4-3 SP1-V7A is recorded as 42.1 (5) %. In addition, in the series on HIV-1 clade C pindieC1, the “% CA-SP1 Accumulation K3016 10 nM” value was found to be 26.7% and the “% CA-SP1 Accumulation K3016 100 nM” value turned out to be 43.8%. Besides, in the series with HIV-1 clade C K3016 [3], the “% Relative Infectivity K3016 10 nM” value was determined as 48.6% and the “% Relative Infectivity K3016 100 nM” value was 32.3%.

As to `C=C(C)[C@@H]1CC[C@]2(CCNCCN3CCS(=O)(=O)CC3)CC[C@]3(C)[C@H](CC[C@@H]4[C@@]5(C)CC[C@H](OC(=O)CC(C)(C)C(=O)O)C(C)(C)[C@@H]5CC[C@]43C)[C@@H]12` [Compound 51ee, (3β)-17-[[[2-[2-(1,1-Dioxothiomorpholin-4-yl)]Ethyl]Amino]Ethyl]-28-norlup-20(29)-en-3-ol, 3-(1-Hydrogen 2,2-Dimethylbutanedioate)], in the series with HIV-1 clade B NL4-3, the “% Relative Infectivity NL4-3 10 nM” value was 15.4% and the “% Relative Infectivity NL4-3 100 nM” value is 4.4%. In the series on HIV-1 clade C K3016 [1], the “% CA-SP1 Accumulation K3016 10 nM” value came to 53.8% and the “% CA-SP1 Accumulation K3016 100 nM” value is given as 66.4%. In addition, in series [2], the 50% cytotoxic concentration (CC50) at 4 days was over 100 nM. The “% CA-SP1 Accumulation 10 nM SP1 V7A” value in the series on pNL4-3 SP1-V7A is given as 35.1%. In addition, in the series with HIV-1 clade C pindieC1, the “% CA-SP1 Accumulation K3016 10 nM” value is 41.8% and the “% CA-SP1 Accumulation K3016 100 nM” value turned out to be 48.3%. In the series on HIV-1 clade C K3016 [3], the “% Relative Infectivity K3016 10 nM” value was determined as 32.0% and the “% Relative Infectivity K3016 100 nM” value turned out to be 7.8%.

Regarding `C=C(C)[C@@H]1CC[C@]2(CCNC3CCN(CCO)CC3)CC[C@]3(C)[C@H](CC[C@@H]4[C@@]5(C)CC[C@H](OC(=O)CC(C)(C)CC(=O)O)C(C)(C)[C@@H]5CC[C@]43C)[C@@H]12` [Compound 51f, (3β)-17-[2-[[1-(2-Hydroxyethyl)piperidin-4-yl]amino]ethyl]-28-norlup-20(29)-en-3-ol, 3-(Hydrogen 3,3-Dimethylpentanedioate), Bis(trifluoroacetate) Salt], in the series on pNL4-3 SP1-V7A (100 nM compound), the “% CA-SP1 Accumulation 100 nM SP1 V7A” value is on record as 43.4 (3) %.

Take `C=C(C)[C@@H]1CC[C@]2(CCNCCN3CCN(S(C)(=O)=O)CC3)CC[C@]3(C)[C@H](CC[C@@H]4[C@@]5(C)CC[C@H](OC(=O)CC(C)(C)C(=O)O)C(C)(C)[C@@H]5CC[C@]43C)[C@@H]12` [Compound 51ff, (3β)-17-[2-[[2-[4-(Methylsulfonyl)piperazin-1-yl]ethyl]amino]ethyl]-28-norlup-20(29)-en-3-ol, 3-(1-Hydrogen 2,2-Dimethylbutanedioate)]: in the series with HIV-1 clade B NL4-3, the “% Relative Infectivity NL4-3 10 nM” value is on record as 20.1% and the “% Relative Infectivity NL4-3 100 nM” value was 2.9%. In the series on HIV-1 clade C K3016 [1], the “% CA-SP1 Accumulation K3016 10 nM” value worked out at 49.8% and the “% CA-SP1 Accumulation K3016 100 nM” value worked out at 54.4%. In addition, the CC50 at 4 days in series [2] was over 100 nM. Further, the “% CA-SP1 Accumulation 10 nM SP1 V7A” value in the series with pNL4-3 SP1-V7A was 31.1 (3) %. In the series on HIV-1 clade C pindieC1, the “% CA-SP1 Accumulation K3016 10 nM” value stood at 36.7% and the “% CA-SP1 Accumulation K3016 100 nM” value stood at 39.1%. Also, in the series on HIV-1 clade C K3016 [3], the “% Relative Infectivity K3016 10 nM” value stood at 43.3% and the “% Relative Infectivity K3016 100 nM” value is reported as 24.4%.

As usually defined, the CC50 is the concentration at which the toxic effect on the cells reaches its halfway point.
